Assay [1] relates to JJ5 Breast Cancer cells. In words: Growth inhibition assay against JJ5 breast cancer cells. The assay is classed as cell-based, human. Particulars: 4 days culture. On the procedure:
Growth medium was added and the cells were cultured at 37° C./5% CO^2 for 4 days. The cells were then recovered by trypsinization and counted in a hemocytometer. Control dishes contained cells cultured in growth medium containing ^111In-DTPA or growth medium alone.

In assay [2] the test system is JJ5 Breast Cancer cells. In words: Cytotoxicity (colony-forming) assay against JJ5 breast cancer cells. Conditions: 14 days. The assay is classed as cell-based, human. On the procedure:
The number of cells seeded was varied from 3×10^4 to 3×10^6cells to obtain approximately 400 viable colonies/dish taking into account the plating efficiency and the expected level of cytotoxicity. Control dishes contained JJ5 breast cancer cells which were incubated with normal saline. Growth medium was added and the cells were cultured at 37° C./5% CO^2 for 14 days. The growth medium was removed and the colonies were stained with methylene blue (1% in a 1:1 mixture of ethanol and water) then washed twice. The number of colonies per dish was counted using a manual colony counter (Manostat Corp). The plating efficiency was calculated by dividing the number of colonies observed by the number of cells seeded in each dish.

In assay [3] the test system is JJ5 Breast Cancer cells. In words: Binding of EGF-^111In-labeled transferrin compound to breast cancer cells (radioligand binding, kinetics, retention). Details: species or system human. As for the experimental part: For the normal breast cell line HBL-100, 8000 EGFR/cell has been reported. The expression of EGFR in breast cancer cell lines has a reported range of 800 EGFR/cell for MCF-7 cells to 10^6 EGFR/cell for MDA-MB-468 cells. […] Utilizing the Auger electron emitter ^111In was used in the initial experiments to illustrate the utility of the invention using EGF-^111In-labeled transferrin compounds. The EGF-^111In-labeled transferrin (0.25-80 ng) was incubated with 1.5×10^6 cells/dish JJ5 Breast Cancer (prepared from BCBM JJ5) cells in 1 mL of 0.1% human serum albumin in 35 mm multiwell culture dishes at 37° C. for 30 minutes. The cells were transferred to a centrifuge tube and centrifuged. The cell pellet was separated from the supernatant and counted in a g-scintillation counter to determine bound (B) and free (F) radioactivity. Non-specific binding was determined by conducting the assay in 100 nM hEGF. […] Internalized fraction was measured by determining the proportion of radioactivity which could not be displaced from the cell surface by 100 nM hEGF. Cell-associated binding (surface-binding and intracellular accumulation) was expressed as a percentage of medium radioactivity bound per mg of cell study protein.

For the compound `[In+3].[O-]c1cccc2cccnc12.[O-]c1cccc2cccnc12.[O-]c1cccc2cccnc12` [^111In-oxine, reference compound], the “growth inhibition of the JJ5 cells compared to the medium control” value in the assay on JJ5 Breast Cancer cells [1] (3.5 pCi/cell) is given as 91%. In the assay on JJ5 Breast Cancer cells [2] (<6 pCi/cell), the cell killing result is on record as “greater than 99%”.
For “EGF-^111In-labeled transferrin compound: human EGF linked to ^111In-labeled human transferrin”, in the assay with JJ5 Breast Cancer cells [1] (3.4 pCi/cell), the “growth inhibition of the JJ5 cells compared to the medium control” value amounted to 83%. The “internalization by cancer cells, in words” value in the assay on JJ5 Breast Cancer cells [3] is listed as “rapidly internalized”. In addition, in the assay with JJ5 Breast Cancer cells [3] (JJ5 cells, 37° C.), the “binding by the breast cancer cells (kinetics, in words)” value is reported as “rapidly bound” and the “retained by the breast cancer cells” value is “at least 24 hours”. The “affinity constant for binding to JJ5 cells” value in the assay with JJ5 Breast Cancer cells [3] (JJ5 cells, 37° C., 30 minutes) came to 8e+08 L/mol. Moreover, the “reduction in cell survival for JJ5 cells” value in the assay on JJ5 Breast Cancer cells [2] (8 pCi/cell) came out at 99%.

Values taken from patent publication US20040219097A1, “Composition useful for the diagnosis, imaging and treatment of tumors” (priority 2003, published 2004).
